Measured values: patent US9963518B2, “Cyclic oligosaccharides for use in the treatment and prevention of bacterial infection” (priority 2011, dated 2018)
Values joined by “and” are separate entries in the source; they are usually repeats but may differ in a detail not shown here. Equal entries are not always repeated.

Columns and labels:
[1] = tested on: K30 polysaccharide transport through Wza; test: Inhibition of K30 polysaccharide transport through Wza, phenol extraction and carbohydrate staining; type: cell-based, E. coli strain E69
Description: The inhibitory effect of am8γCD, am7βCD and am6αCD were tested on live bacteria (E. coli strain E69) with K30 capsular polysaccharide (CPS) and Wza as its transporter. Isolation and staining of the polysaccharides was used. Phenol extraction was carried out in accordance with Orskov (Eur. J. Biochem.; 1980, Stirm, J. Bacteriol. 1967) to isolate the capsular polysaccharide (CPS) and lipopolysaccharide (LPS), followed by carbohydrate staining Pro-Q Emerald 300 glycoprotein stain kit (Molecular Probes) was used for staining of both the CPS and LPS. The staining time, loading volume, oxidation time and washing time after staining were optimised and the following conditions used in the assay:
Loading volume: 3 μL of the stock aqueous polysaccharide solution (see below), mixed with 3 μL of the Laemmli sample buffer (1 mL, Bio-Rad) mixed with 2-mercaptoethanol (950 microliter:50 microliter) before use;
Oxidation time: 30 minutes
Further details of the microbiology and the staining procedures used are as follows: The strains were grown in the absence of or the presence of various concentrations of am8γCD overnight in M9 minimal medium until OD reached ˜0.5. Cells were collected by centrifugation of the culture at 2583×g for 20 minutes at 4° C. In the phenol extraction, volume of phenol/buffer (20 mM Tris.-HCl, 2 mM MgCl2, 20 mM NaCl, pH 8.0) to each tube with a cell pellet is calculated as OD*667 μL. […] By doing this, the cell concentration in each sample was identical so that the changes in CPS and LPS quantity of each cell on average could be compared quantitatively.
Detailed measurement of the inhibitory effect of am8γCD towards K30 polysaccharide translocation was then performed. […] The gel was stained to generate fluorescence signals that correspond to the sugar quantity. […]
The fluorescent intensities of the gels were measured by using the Bio-Rad Universal Hood II. […] The fluorescence intensity of each lane was processed with the Plot Lane function after illumination of the gel with UV light at 302 nm and fluorescent data collection emissions going through an Amber Filter (548-630 nm).

[2] = target: Wza Y110G/K375C (Escherichia coli, UniProt Q9X4B7, K375C/Y110G); test: Single-channel electrical recording, blockers against mutant Wza Y110G/K375C; type: binding, E. coli
Description: The Wza pore was opened by replacing the tyrosines at position 110 that line the narrowest region of the lumen with glycine. To confirm that the currents observed indeed arose from the mutant pore, a cysteine was introduced in the α-helix barrel (Y110G/K375C) and would therefore yield a characteristic reversible blockade when derivatized with a suitable thiol-specific reagent.
The unitary conductance of the Y110G/K375C pore was determined as for wt-Wza, by measuring stepwise-insertion using the same technique referenced above. The mean open current of Y110G/K375C was determined to be +85±14.1 pA (+50 mV, n=31), corresponding to 1.70±0.28 nS (+50 mV, n=31) in conductance.
Thirteen commercial cyclodextrins (CDs) were tested for their ability to block WT-Wza and the mutant Y110G/K375C (Table 1) including, neutral, negatively charged or positively charged cyclodextrins. Testing was carried out using electrical channel recording in high salt buffer (2M KCl, 5 mM HEPES, 100 μM EDTA, 200 μM DTT) at pH 7.5.

NC[C@H]1O[C@@H]2O[C@H]3[C@H](O)[C@@H](O)[C@@H](O[C@H]4[C@H](O)[C@@H](O)[C@@H](O[C@H]5[C@H](O)[C@@H](O)[C@@H](O[C@H]6[C@H](O)[C@@H](O)[C@@H](O[C@H]7[C@H](O)[C@@H](O)[C@@H](O[C@H]8[C@H](O)[C@@H](O)[C@@H](O[C@H]9[C@H](O)[C@@H](O)[C@@H](O[C@H]1[C@H](O)[C@H]2O)O[C@@H]9CN)O[C@@H]8CN)O[C@@H]7CN)O[C@@H]6CN)O[C@@H]5CN)O[C@@H]4CN)O[C@@H]3CN [No. 12, Octacis (6-amino-6-deoxy)-γ-cyclodextrin]
Inhibition of K30 polysaccharide transport compared with am7βCD and am6αCD ([1]; 1 mM, E. coli strain E69, staining assay): much stronger
LPS fluorescent intensity at saturation ([1]; E. coli strain E69, increasing am8γCD): around 2 times that of the control
IC50 ([1]; Escherichia coli, read-out: IC50 from concentration dependence of the CPS band intensity): 51.2 ± 1 µM
Kd ([2]; Kd, interaction with mutant Wza, Y110G/K375C, +3 mV, n = 3, 2M KCl buffer pH 7.5): 12.3 µM and 12 µM
Interaction with mutant Wza ([2]; Y110G/K375C, 2M KCl, 5 mM HEPES, 100 μM EDTA, 200 μM DTT, pH 7.5): not observed^c
Binding strength relative to am7βCD ([2]; at different voltages): ≥ 10 times
